In data set [1] the test system is Mycobacterium tuberculosis H37Rv (ATCC 27294). Description: Growth inhibition dose response against M. tuberculosis. Format: cell-based. To be noted: 7H9 broth, OD600, twofold serial dilution from 500 μM.
The subject of data set [2] is M. bovis BCG (ATCC 35734). The experiment in a line: microbe, parasite or virus in culture. To be noted: for MIC50: Mycobacterium tuberculosis variant bovis BCG, 120 h, read-out: M. bovis BCG MIC50, 7H9 broth, 5 days, OD600. Format: cell-based.
Data set [3] relates to M. abscessus Bamboo (smooth morphotype). The experiment in a line: Growth inhibition dose response against M. abscessus. It counts as cell-based. To be noted: Mycobacteroides abscessus, 72 h; 3 days, max 500 μM.
The next data set concerns M. avium 11. Description: Growth inhibition dose response against M. avium. To be noted: Mycobacterium avium, 11, 120 h; 5 days, max 500 μM. Format: cell-based.
Data set [4] concerns Staphylococcus aureus (ATCC 43300, MRSA). Description: microbe, parasite or virus in culture. Format: cell-based. To be noted: 18 h, read-out: S. aureus Growth Inhibition Spectrum (MIC80).
The subject of data set [5] is Escherichia coli (ATCC 25922). The experiment in a line: Antibacterial growth inhibition, E. coli. To be noted: ATCC25922, twofold serial dilution, max 100 μM, 18 h, read-out: E. coli Growth Inhibition Spectrum (MIC80). It counts as cell-based.
In data set [6] the test system is Klebsiella pneumoniae (ATCC 700603, MDR). Description: microbe, parasite or virus in culture. It counts as cell-based. To be noted: ATCC700603, 18 h, read-out: K. pneumoniae Growth Inhibition Spectrum (MIC80).
The subject of data set [7] is Acinetobacter baumannii (ATCC 19606). The experiment in a line: Antibacterial growth inhibition, A. baumannii. It counts as cell-based. To be noted: ATCC19606, twofold serial dilution, max 100 μM, 18 h, read-out: A. baumannii Growth Inhibition Spectrum (MIC80).
Data set [8] concerns Pseudomonas aeruginosa (ATCC 27853). The experiment in a line: Antibacterial growth inhibition, P. aeruginosa. It counts as cell-based. To be noted: ATCC27853, twofold serial dilution, max 100 μM, 18 h, read-out: P. aeruginosa Growth Inhibition Spectrum (MIC80).
In data set [9] the test system is Candida albicans (ATCC 90028). The experiment in a line: Antifungal growth inhibition, C. albicans. Format: cell-based. To be noted: ATCC90028, twofold serial dilution, max 100 μM, 24 h, read-out: C. albicans Growth Inhibition Spectrum (MIC80).
In data set [10] the test system is Cryptococcus neoformans (ATCC 208821). Description: Antifungal growth inhibition, C. neoformans. Format: cell-based. To be noted: ATCC208821, twofold serial dilution, max 100 μM, 24 h, resazurin, read-out: C. neoformans Growth Inhibition Spectrum (MIC80). On the technique in general: The colour change of resazurin is a common sign of viable cells or microbes.
A short description of data set [11]: MTS cytotoxicity assay, A549. To be noted: human, A549 cells (ATCC CCL-185). Background: Formazan colour is commonly taken as a measure of viable cells.
Data set [12] concerns A549 (ATCC CCL-185) cells. Description: MTS cytotoxicity assay, A549. To be noted: selectivity index vs M. tuberculosis MIC50.
A short description of data set [13]: MTS cytotoxicity assay, HepG2. To be noted: human, HepG2 cells (ATCC HB.8065).
For data set [14], the system named is HepG2 (ATCC HB.8065) cells. Description: MTS cytotoxicity assay, HepG2. To be noted: selectivity index vs M. tuberculosis MIC50.
In the next data set the test system is Red blood cells. The experiment in a line: Hemolytic activity (red blood cell lysis assay). To be noted: for RBC SI: selectivity index vs M. tuberculosis MIC50; for RBC HC50: hemolysis, 24 h in PBS, unit not given, same scale as MIC50, i not defined.

This is an account of results in PMC5013068, “Fragment-Based Whole Cell Screen Delivers Hits against M. tuberculosis and Non-tuberculous Mycobacteria” (Frontiers in Microbiology, 2016).

≈ marks a conversion by molar mass, not a printed value. Where only a bound is given, the exact number is not on record here.

With `Cc1nc(-c2c[nH]c3ccccc23)cs1` [Fragment 9], the MIC50 in [1] was 126 µM (≈ 27 µg/mL); in data set [2], 39 µM (≈ 8.36 µg/mL); in data set [3] it was greater than 500 µM; in the data set on M. avium 11, greater than 500 µM. Further, the MIC80 in data set [4], in data set [5], in data set [6], in data set [7], in [8] and in data set [9] was greater than 100 µM in each case. Also, the MIC80 in data set [10] was greater than 100 µM. The CC50 (as a rule, the concentration that lowers cell viability or growth by half) in [11] is greater than 2500 µM; in [13] it was 500 µM. In addition, the “A549 SI” value in data set [12] is recorded as greater than 20. In data set [14], the “HepG2 SI” value was found to be 4. Moreover, the “RBC SI” value in the data set on Red blood cells is greater than 18.

Turning to `N#CSC1C=CS(=O)(=O)C1` (centres unmarked) [Fragment 6], the MIC50 in data set [1] was 92 µM (≈ 16.1 µg/mL); in data set [2] it was 53 µM (≈ 9.29 µg/mL); in [3] it was greater than 500 µM; with M. avium 11, greater than 500 µM. Also, the MIC80 in data set [4] is 100 µM (≈ 17.5 µg/mL); in [5], greater than 100 µM; in data set [6] it was greater than 100 µM; in data set [7] it was 100 µM (≈ 17.5 µg/mL); in data set [8], greater than 100 µM; in [9], 100 µM (≈ 17.5 µg/mL). The MIC80 in [10] is greater than 100 µM. Also, the CC50 turned out to be 1000 µM in data set [11] and 75 µM in data set [13]. Also, the “A549 SI” value in [12] was 11. In addition, in the data set with Red blood cells, the “RBC HC50” value is 2200. In the data set with Red blood cells, the “RBC SI” value is recorded as 24.

As for `COn1c(-c2ccc(Cl)cc2)nc2ncccc21` [Fragment 7], the MIC50 came out at 104 µM (≈ 27 µg/mL) in [1], 19 µM (≈ 4.93 µg/mL) in data set [2], 150 µM (≈ 39 µg/mL) in [3] and 145 µM (≈ 37.7 µg/mL) against M. avium 11. Moreover, the MIC80 in data set [4], in [5], in data set [6], in data set [7], in data set [8] and in data set [9] was greater than 100 µM throughout. In addition, the MIC80 in data set [10] was greater than 100 µM. Besides, the CC50 in data set [11] came to 1800 µM; in data set [13] it was 850 µM. In addition, in [12], the “A549 SI” value was determined as 17. Further, in [14], the “HepG2 SI” value is listed as 8. Also, the “RBC SI” value in the data set with Red blood cells is given as greater than 23.

As to `O=C(c1cc2cc(F)ccc2s1)N1CCC1` [Fragment 5], the MIC50 in [1] is 60 µM (≈ 14.1 µg/mL); in data set [2], 68 µM (≈ 16 µg/mL); in [3], greater than 500 µM; in the data set with M. avium 11, greater than 500 µM. The MIC80 in [4], in [5], in data set [6], in data set [7], in data set [8] and in data set [9] was greater than 100 µM each time. Besides, in [10], the MIC80 was greater than 100 µM. Further, the CC50 in [11] and in data set [13] was greater than 2500 µM each time. The “A549 SI” value in data set [12] is on record as greater than 41. Also, the “HepG2 SI” value in data set [14] is recorded as greater than 41. In the data set on Red blood cells, the “RBC SI” value was greater than 41.

On to `Cc1cc2nc(CN)[nH]c2cc1C` [Fragment 10], for which the MIC50 in [1] is 131 µM (≈ 23 µg/mL); in data set [2], 53 µM (≈ 9.29 µg/mL); in [3], greater than 500 µM; against M. avium 11, greater than 500 µM. The MIC80 in [4], in data set [5], in data set [6], in data set [7], in [8] and in data set [9] was greater than 100 µM throughout. In data set [10], the MIC80 is greater than 100 µM. Moreover, the values for the CC50 in [11] and in data set [13] were 1900 µM and 900 µM, respectively. The “A549 SI” value in [12] came to 15. Besides, the “HepG2 SI” value in [14] was 7. In addition, the “RBC HC50” value in the data set with Red blood cells is 2100. Besides, the “RBC SI” value in the data set with Red blood cells is 16.

With `Clc1ccc(Oc2cnns2)c2ncccc12` [Fragment 2], the MIC50 in data set [1] was 43 µM (≈ 11.3 µg/mL); in data set [2], 56 µM (≈ 14.8 µg/mL); in [3], greater than 500 µM; in the data set on M. avium 11 it was 130 µM (≈ 34.3 µg/mL). Moreover, the MIC80 in data set [4], in data set [5], in data set [6], in data set [7], in [8] and in [9] was greater than 100 µM in each case. Further, in data set [10], the MIC80 was greater than 100 µM. For the same molecule, the CC50 in data set [11] was greater than 2500 µM; in data set [13], 200 µM. Further, the “A549 SI” value in data set [12] was greater than 7. For the same molecule, in the data set on Red blood cells, the “RBC HC50” value turned out to be 250.

In the case of `COc1cccc2sc(S(C)(=O)=O)nc12` [Fragment 3], the MIC50 in data set [1] is 52 µM (≈ 12.7 µg/mL); in data set [2], 20 µM (≈ 4.87 µg/mL); in [3], greater than 500 µM; against M. avium 11, greater than 500 µM. The MIC80 in data set [4], in data set [5], in [6], in data set [7], in data set [8] and in data set [9] was greater than 100 µM each time. The MIC80 in data set [10] was greater than 100 µM. Besides, in the data set on Red blood cells, the “RBC SI” value was greater than 13.

Regarding `Cc1c(C)n(CC(O)CNC2CCCC2)c2c(Cl)cccc12` (centres unmarked) [Fragment 4], the MIC50 in [1] worked out at 55 µM (≈ 17.6 µg/mL); in data set [2] it was 56 µM (≈ 18 µg/mL); in data set [3], 125 µM (≈ 40.1 µg/mL); against M. avium 11, 53 µM (≈ 17 µg/mL). Further, the MIC80 in data set [4], in data set [5], in data set [6], in data set [7], in data set [8] and in data set [9] was greater than 100 µM each time. Further, in data set [10], the MIC80 was greater than 100 µM. The CC50 in data set [11] stood at 60 µM; in data set [13] it was 45 µM. Further, the “RBC HC50” value in the data set with Red blood cells is reported as 125.

Regarding `CC1CC(N)=NN1c1ccc(Cl)cn1` (centres unmarked) [Fragment 8], the MIC50 was 123 µM (≈ 25.9 µg/mL) in data set [1], 13 µM (≈ 2.74 µg/mL) in data set [2], greater than 500 µM in [3] and 275 µM (≈ 57.9 µg/mL) in the data set on M. avium 11. Moreover, the MIC80 in data set [4] is greater than 100 µM; in data set [5], 100 µM (≈ 21.1 µg/mL); in data set [6], greater than 100 µM; in data set [7], 100 µM (≈ 21.1 µg/mL); in [8], greater than 100 µM; in data set [9] it was 100 µM (≈ 21.1 µg/mL). The MIC80 in [10] is greater than 100 µM. The values for the CC50 in [11] and in data set [13] were greater than 2500 µM and 900 µM, respectively. Besides, the “A549 SI” value in data set [12] was greater than 20. For the same molecule, the “HepG2 SI” value in data set [14] was 7. For the same molecule, in the data set with Red blood cells, the “RBC SI” value is given as greater than 20.

Take `CCNc1nc(C)nc2sc(CC)cc12` [Fragment 1]: the MIC50 in data set [1] is 40 µM (≈ 8.85 µg/mL); in data set [2], 5 µM (≈ 1.11 µg/mL); in [3] it was greater than 500 µM; against M. avium 11 it was greater than 500 µM. Moreover, the “M. bovis BCG MIC50” value in [2] (7H9 broth, 5 days, OD600) is 4.5 µM. The MIC80 in data set [4], in [5], in [6], in data set [7], in data set [8] and in data set [9] was greater than 100 µM throughout. Moreover, in data set [10], the MIC80 is greater than 100 µM. Besides, the CC50 in data set [11] and in data set [13] was greater than 2500 µM throughout. Moreover, the “A549 SI” value in data set [12] is reported as greater than 24. In addition, in [14], the “HepG2 SI” value was greater than 24. Also, the “RBC SI” value in the data set with Red blood cells is listed as greater than 24.
